The experiment deals with PDE10A (Homo sapiens (Human), UniProt Q9Y233). In words: PDE10A inhibition assay. Format: biochemical. As for the experimental part: Active PDE10A enzyme is prepared in a number of ways for use in PDE assays (Loughney, K. et al. Gene 1999, 234, 109-117; Fujishige, K. et al. Eur J. Biochem. 1999, 266, 1118-1127 and Soderling, S. et al. Proc. Natl. Acad. Sci. 1999, 96, 7071-7076). PDE10A can be expressed as full-length proteins or as truncated proteins, as long as they express the catalytic domain. PDE10A can be prepared in different cell types, for example insect cells or E. coli. An example of a method to obtain catalytically active PDE10A is as follows: The catalytic domain of human PDE10A (amino acids 440-779 from the sequence with accession number NP 006652) is amplified from total human brain total RNA by standard RT-PCR and is cloned into the BamH1 and Xho1 sites of the pET28a vector (Novagen). Expression in coli is performed according to standard protocols. Briefly, the expression plasmids are transformed into the BL21(DE3) E. coli strain, and 50 mL cultures inoculated with the cells allowed to grow to an OD600 of 0.4-0.6 before protein expression is induced with 0.5 mM IPTG. Following induction, the cells are incubated overnight at room temperature, after which the cells are collected by centrifugation. Cells expressing PDE10A are resuspended in 12 mL (50 mM TRIS-HCl-pH8.0, 1 mM MgCl2 and protease inhibitors). The cells are lysed by sonication, and after all cells are lysed, TritonX100 is added according to Novagen protocols.
PDE10A, sequence (Q9Y233 716-1055): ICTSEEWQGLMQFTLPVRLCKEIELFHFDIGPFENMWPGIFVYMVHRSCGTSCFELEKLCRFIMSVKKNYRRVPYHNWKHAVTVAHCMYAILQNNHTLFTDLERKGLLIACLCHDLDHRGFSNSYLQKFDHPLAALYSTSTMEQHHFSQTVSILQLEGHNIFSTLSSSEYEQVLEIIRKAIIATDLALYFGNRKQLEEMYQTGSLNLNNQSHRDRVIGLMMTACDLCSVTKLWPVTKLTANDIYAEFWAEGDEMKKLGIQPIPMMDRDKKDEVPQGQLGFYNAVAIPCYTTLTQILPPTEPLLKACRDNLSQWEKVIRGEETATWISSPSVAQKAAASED
A PDE10A assay may for example, be performed as follows: The assay is performed in 60 uL samples containing a fixed amount of the relevant PDE enzyme (sufficient to convert 20-25% of the cyclic nucleotide substrate); a buffer (50 mM HEPES7.6; 10 mM MgCl2; 0.02% Tween20), 0.1 mg/ml BSA, 225 pCi of ^3H-labelled cyclic nucleotide substrate, tritium labeled cAMP to a final concentration of 5 nM and varying amounts of inhibitors. Reactions are initiated by addition of the cyclic nucleotide substrate, and reactions are allowed to proceed for one hr at room temperature before being terminated through mixing with 15 uL 8 mg/mL yttrium silicate SPA beads (Amersham). The beads are allowed to settle for one hr in the dark before the plates are counted in a Wallac 1450 Microbeta counter. The measured signal can be converted to activity relative to an uninhibited control (100%) and IC50 values can be calculated using the Xlfit extension to EXCEL.
For `COc1cccn2nc(CCc3nc(-c4cccs4)cn3C)nc12` [8-Methoxy-2-[2-(1-methyl-4-thiophen-2-yl-1H-imidazol-2-yl)-ethyl]-[1,2,4]triazolo[1,5-a]pyridine], the 50% inhibitory concentration (IC50) (usually the concentration at which inhibition is half-maximal) turned out to be 4.5 nM.

The molecule `COc1cccn2nc(CCc3nc(-c4ccsc4)cn3C)nc12` [8-Methoxy-2-[2-(1-methyl-4-thiophen-3-yl-1H-imidazol-2-yl)-ethyl]-[1,2,4]triazolo[1,5-a]pyridine] yielded an IC50 of 16 nM.

In the case of `COc1cccn2nc(CCc3nc(-c4cccnc4)c[nH]3)nc12` [8-Methoxy-2-[2-(4-pyridin-3-yl-1H-imidazol-2-yl)-ethyl]-[1,2,4]triazolo[1,5-a]pyridine], the half-maximal inhibitory concentration (IC50) turned out to be 270 nM. Against the preceding molecule, the IC50 is about 17-fold higher.

In turn, `COc1cccn2nc(CCc3nc(-c4cncs4)c[nH]3)nc12` [8-Methoxy-2-[2-(4-thiazol-5-yl-1H-imidazol-2-yl)-ethyl]-[1,2,4]triazolo[1,5-a]pyridine] had a half-maximal inhibitory concentration (IC50) of 62 nM. This IC50 lies about 4.4-fold lower than the previous one.

Molecule `COc1cccn2nc(CCc3nc(-c4cccs4)c[nH]3)nc12` [8-Methoxy-2-[2-(4-thiophen-2-yl-1H-imidazol-2-yl)-ethyl]-[1,2,4]triazolo[1,5-a]pyridine] had an IC50 of 28 nM.

The molecule `COc1cccn2nc(/C=C/c3nc(-c4cncs4)cn3C)nc12` [8-Methoxy-2-[(E)-2-(1-methyl-4-thiazol-5-yl-1H-imidazol-2-yl)-vinyl]-[1,2,4]triazolo[1,5-a]pyridine] showed a concentration for half-maximal inhibition (IC50) of 85 nM.

As to `COc1cccn2nc(/C=C/c3nc(-c4cccs4)cn3C)nc12` [8-Methoxy-2-[(E)-2-(1-methyl-4-thiophen-2-yl-1H-imidazol-2-yl)-vinyl]-[1,2,4]triazolo[1,5-a]pyridine], half-maximal inhibition (IC50) was put at 62 nM.

Consider `COc1cccn2nc(/C=C/c3nc(-c4ccsc4)cn3C)nc12` [8-Methoxy-2-[(E)-2-(1-methyl-4-thiophen-3-yl-1H-imidazol-2-yl)-vinyl]-[1,2,4]triazolo[1,5-a]pyridine], for which half-maximal inhibition (IC50) was put at 52 nM. This IC50 and that of the molecule before are within 1.5-fold of each other.

For `COc1cccn2nc(CCc3nc(-c4cscc4C)cn3C)nc12` [8-Methoxy-2-{2-[1-methyl-4-(4-methyl-thiophen-3-yl)-1H-imidazol-2-yl]-ethyl}-[1,2,4]triazolo[1,5-a]pyridine], the IC50 came out at 37 nM. This IC50 and that of the molecule before are within 1.5-fold of each other.

`COc1cccn2nc(CCc3nc(-c4ccc(C)o4)cn3C)nc12` [8-Methoxy-2-{2-[1-methyl-4-(5-methyl-furan-2-yl)-1H-imidazol-2-yl]-ethyl}-[1,2,4]triazolo[1,5-a]pyridine] had a 50% inhibitory concentration (IC50) of 56 nM. Against the preceding molecule, the IC50 is about 1.5-fold higher.

Regarding `COc1cccn2nc(CCc3nc(-c4ccc(C)o4)c[nH]3)nc12` [8-Methoxy-2-{2-[4-(5-methyl-furan-2-yl)-1H-imidazol-2-yl]-ethyl}-[1,2,4]triazolo[1,5-a]pyridine], the IC50 came out at 120 nM. This IC50 is about 2.1-fold higher than that of the molecule before.

For the molecule `COc1cccn2nc(/C=C/c3nc(-c4cscc4C)cn3C)nc12` [8-Methoxy-2-{(E)-2-[1-methyl-4-(4-methyl-thiophen-3-yl)-1H-imidazol-2-yl]-vinyl}-[1,2,4]triazolo[1,5-a]pyridine], the IC50 is 55 nM.

Regarding `COc1ccc(C)n2nc(CCc3nc(-c4cccnc4)cn3C)nc12` [8-Methoxy-5-methyl-2-[2-(1-methyl-4-pyridin-3-yl-1H-imidazol-2-yl)-ethyl]-[1,2,4]triazolo[1,5-a]pyridine], the midpoint of inhibition, the IC50, lay at 24 nM.

Molecule `COc1ccc(C)n2nc(CCc3nc(-c4cncs4)cn3C)nc12` [8-Methoxy-5-methyl-2-[2-(1-methyl-4-thiazol-5-yl-1H-imidazol-2-yl)-ethyl]-[1,2,4]triazolo[1,5-a]pyridine] displayed an IC50 of 9.2 nM.

Consider `COc1ccc(C)n2nc(CCc3nc(-c4cccs4)cn3C)nc12` [8-Methoxy-5-methyl-2-[2-(1-methyl-4-thiophen-2-yl-1H-imidazol-2-yl)-ethyl]-[1,2,4]triazolo[1,5-a]pyridine], for which the IC50 was 1.5 nM.

Consider `COc1ccc(C)n2nc(CCc3nc(-c4ccsc4)cn3C)nc12` [8-Methoxy-5-methyl-2-[2-(1-methyl-4-thiophen-3-yl-1H-imidazol-2-yl)-ethyl]-[1,2,4]triazolo[1,5-a]pyridine], for which inhibition was half-maximal at 1.7 nM (IC50).

In the case of `C#CCn1cc(-c2cccs2)nc1CCc1nc2c(OC)ccc(C)n2n1` [8-Methoxy-5-methyl-2-[2-(1-prop-2-ynyl-4-thiophen-2-yl-1H-imidazol-2-yl)-ethyl]-[1,2,4]triazolo[1,5-a]pyridine], half-maximal inhibition (IC50) required 4.1 nM.

`CCCn1cc(-c2cccs2)nc1CCc1nc2c(OC)ccc(C)n2n1` [8-Methoxy-5-methyl-2-[2-(1-propyl-4-thiophen-2-yl-1H-imidazol-2-yl)-ethyl]-[1,2,4]triazolo[1,5-a]pyridine]: the concentration for half-maximal inhibition (IC50) was determined as 1.2 nM.

`COc1ccc(C)n2nc(CCc3nc(-c4cccs4)c[nH]3)nc12` [8-Methoxy-5-methyl-2-[2-(4-thiophen-2-yl-1H-imidazol-2-yl)-ethyl]-[1,2,4]triazolo[1,5-a]pyridine] displayed an IC50 of 1.1 nM. The IC50 values of the last two molecules are within 1.5-fold of each other.

`COc1ccc(C)n2nc(/C=C/c3nc(-c4cccs4)cn3C)nc12` [8-Methoxy-5-methyl-2-[(E)-2-(1-methyl-4-thiophen-2-yl-1H-imidazol-2-yl)-vinyl]-[1,2,4]triazolo[1,5-a]pyridine] gave a 50% inhibitory concentration (IC50) of 2.7 nM.

Molecule `COc1ccc(C)n2nc(CCc3nc(-c4cccs4)cn3CCN3CCOCC3)nc12` [8-Methoxy-5-methyl-2-{2-[1-(2-morpholin-4-yl-ethyl)-4-thiophen-2-yl-1H-imidazol-2-yl]-ethyl}-[1,2,4]triazolo[1,5-a]pyridine] yielded a half-maximal inhibitory concentration (IC50) of 0.33 nM.

Molecule `COc1ccc(C)n2nc(CCc3nc(-c4cscc4C)cn3C)nc12` [8-Methoxy-5-methyl-2-{2-[1-methyl-4-(4-methyl-thiophen-3-yl)-1H-imidazol-2-yl]-ethyl}-[1,2,4]triazolo[1,5-a]pyridine] had a half-inhibitory concentration (IC50) of 3.1 nM.

As for `COc1ccc(C)n2nc(CCc3nc(-c4ccc(C)o4)cn3C)nc12` [8-Methoxy-5-methyl-2-{2-[1-methyl-4-(5-methyl-furan-2-yl)-1H-imidazol-2-yl]-ethyl}-[1,2,4]triazolo[1,5-a]pyridine], the IC50 amounted to 20 nM.

With `Cc1cccn2nc(CCc3nc(-c4cncs4)cn3C)nc12` [8-Methyl-2-[2-(1-methyl-4-thiazol-5-yl-1H-imidazol-2-yl)-ethyl]-[1,2,4]triazolo[1,5-a]pyridine], the IC50 was 36 nM.

With `Cc1cccn2nc(CCc3nc(-c4cccs4)cn3C)nc12` [8-Methyl-2-[2-(1-methyl-4-thiophen-2-yl-1H-imidazol-2-yl)-ethyl]-[1,2,4]triazolo[1,5-a]pyridine], the IC50 was 15 nM.

`Cc1cccn2nc(CCc3nc(-c4cccnc4)c[nH]3)nc12` [8-Methyl-2-[2-(4-pyridin-3-yl-1H-imidazol-2-yl)-ethyl]-[1,2,4]triazolo[1,5-a]pyridine] showed a half-maximal inhibitory concentration (IC50) of 64 nM.

Molecule `Cc1cccn2nc(CCc3nc(-c4cccs4)c[nH]3)nc12` [8-Methyl-2-[2-(4-thiophen-2-yl-1H-imidazol-2-yl)-ethyl]-[1,2,4]triazolo[1,5-a]pyridine] had a half-maximal inhibitory concentration (IC50) of 0.99 nM.

The molecule `Cc1cccc2nc(CCc3nc(-c4cccs4)cn3C[C@@H](O)CCl)nn12` [(R)-1-Chloro-3-{2-[2-(5-methyl-[1,2,4]triazolo[1,5-a]pyridin-2-yl)-ethyl]-4-thiophen-2-yl-imidazol-1-yl}-propan-2-ol] returned a concentration for half-maximal inhibition (IC50) of 2.8 nM.

The molecule `Cc1cccc2nc(CCc3nc(-c4cccs4)cn3C[C@@H](O)CNCCO)nn12` [(S)-1-(2-Hydroxy-ethylamino)-3-{2-[2-(5-methyl-[1,2,4]triazolo[1,5-a]pyridin-2-yl)-ethyl]-4-thiophen-2-yl-imidazol-1-yl}-propan-2-ol] had an IC50 of 30 nM.

On to `Cc1cccc2nc(CCc3nc(-c4cccs4)cn3C[C@@H](O)CN(C)C(C)C)nn12` [(S)-1-(Isopropyl-methyl-amino)-3-{2-[2-(5-methyl-[1,2,4]triazolo[1,5-a]pyridin-2-yl)-ethyl]-4-thiophen-2-yl-imidazol-1-yl}-propan-2-ol], for which the half-maximal inhibitory concentration (IC50) stood at 97 nM.

`CCN(CC)C[C@H](O)Cn1cc(-c2cccs2)nc1CCc1nc2cccc(C)n2n1` [(S)-1-Diethylamino-3-{2-[2-(5-methyl-[1,2,4]triazolo[1,5-a]pyridin-2-yl)-ethyl]-4-thiophen-2-yl-imidazol-1-yl}-propan-2-ol]: the IC50 was 77 nM.

Molecule `Cc1cccc2nc(CCc3nc(-c4cccs4)cn3C[C@@H](O)CN(C)C)nn12` [(S)-1-Dimethylamino-3-{2-[2-(5-methyl-[1,2,4]triazolo[1,5-a]pyridin-2-yl)-ethyl]-4-thiophen-2-yl-imidazol-1-yl}-propan-2-ol] yielded a half-maximal inhibitory concentration (IC50) of 47 nM. Compared with the last molecule, the IC50 is about 1.6-fold lower.

Source of the values: US9096589B2, “Heteroaromatic phenylimidazole derivatives as PDE10A enzyme inhibitors” (H. Lundbeck A/S, priority 2009, dated 2015).
